In patent US6664229B2, “Methods for treatment using novel ligands of the neuropeptide receptor HFGAN72” (SmithKline Beecham p.l.c., priority 1997, dated 2003):

Test system: rats
Experiment: Cannula placement verification: dipsogenic response to icv angiotensin II
Assay type: in vivo, rat
Settings: 100 ng i.c.v., 5 minute period post-AII, average
Experimental: An appropriate cannula placement is indicated by an intense dipsogenic response to 100 ng i.c.v. angiotensin II (AII). To induce a dipsogenic effect, access is required to the AII receptors located on circumventricular organs around the third ventricle. The time spent drinking for a 5 minute period post-AII is recorded. This tends to be an all-or-nothing effect, but rats spend on average 150 s drinking. […] This may be verified by injection of cresyl violet and sectioning of the brain.

“angiotensin II (DRVYIHPF; Angiotensin-2; UniProt P01019 25-32, looked up)” gave a time spent drinking of roughly 150 s.
